# Measurements from ChEMBL document CHEMBL1201862, “PubChem BioAssay data set” (2004).
#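 Step 1: Grow cells in 96-well plates. Step 2: Expose to compound for 48 hours at 5 concentrations. Step 3: Interpolate endpoints linearly; if unreached, use highest concentration. Here, GI50 denotes the concentration required for 50% inhibition of growth.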 Active and inactive are the calls of the source. Rule as the data show it: active = GI50 up to about 1.1 µM and inactive = higher.
# Assays:
# Experiment in all cases: NCI anticancer screen, dose series, 48 h
# 786-0 = test system: 786-0
# A549 = test system: A549
# CAKI-1 = test system: CAKI-1
# DU-145 = test system: DU-145
# HT-29 = test system: HT-29
# M14 = test system: M14
# MDA-MB-231 = test system: MDA-MB-231
# MDA-N = test system: MDA-N
# SF-268 = test system: SF-268
# SF-295 = test system: SF-295
# SF-539 = test system: SF-539
# SK-MEL-2 = test system: SK-MEL-2
# SK-MEL-5 = test system: SK-MEL-5
# SNB-19 = test system: SNB-19
# SNB-75 = test system: SNB-75
# T47D = test system: T47D
# TK-10 = test system: TK-10
# UACC-257 = test system: UACC-257
# HL-60 = test system: HL-60
SMILES,GI50 (786-0),GI50 (A549),GI50 (CAKI-1),GI50 (DU-145),GI50 (HT-29),GI50 (M14),GI50 (MDA-MB-231),GI50 (MDA-N),GI50 (SF-268),GI50 (SF-295),GI50 (SF-539),GI50 (SK-MEL-2),GI50 (SK-MEL-5),GI50 (SNB-19),GI50 (SNB-75),GI50 (T47D),GI50 (TK-10),GI50 (UACC-257),GI50 (HL-60)
C#C[C@@H](OC(=O)c1ccc([N+](=O)[O-])cc1)[C@@H]1C[C@H]2O[C@@H]([C@H](C/C=C/CC)OC(=O)c3ccc([N+](=O)[O-])cc3)C[C@H]2O1,> 100 µM (inactive),> 100 µM (inactive),> 100 µM (inactive),> 100 µM (inactive),> 100 µM (inactive),> 100 µM (inactive),> 100 µM (inactive),> 100 µM (inactive),> 100 µM (inactive),> 100 µM (inactive),> 100 µM (inactive),> 100 µM (inactive),> 100 µM (inactive),> 100 µM (inactive),> 100 µM (inactive),> 100 µM (inactive),> 100 µM (inactive),> 100 µM (inactive),–
O=C(O)CCSc1ncnc2[nH]cnc12,> 100 µM (inactive),> 100 µM (inactive),> 100 µM (inactive),> 100 µM (inactive),> 100 µM (inactive),> 100 µM (inactive),> 100 µM (inactive),> 100 µM (inactive),> 100 µM (inactive),> 100 µM (inactive),> 100 µM (inactive),> 100 µM (inactive),> 100 µM (inactive),> 100 µM (inactive),–,> 100 µM (inactive),> 100 µM (inactive),> 100 µM (inactive),> 100 µM (inactive)
COc1cc(C2S/C(=C/c3ccccc3)C(=O)N2c2ccccn2)cc(OC)c1OC (centres undefined),14.3 µM (inactive),18.5 µM (inactive),20.1 µM (inactive),10.3 µM (inactive),11 µM (inactive),15.1 µM (inactive),24.8 µM (inactive),14.1 µM (inactive),15.2 µM (inactive),24.5 µM (inactive),–,30 µM (inactive),20.2 µM (inactive),18.1 µM (inactive),6.87 µM (inactive),7.35 µM (inactive),45.7 µM (inactive),33.1 µM (inactive),12.4 µM (inactive)
CC(=O)O[C@H]1CC[C@@]2(C)C(=CC[C@@H]3[C@@H]2CC[C@]2(C)c4c(cc(C#N)c(=N)n4C(C)=O)C[C@@H]32)C1,20.5 µM (inactive),23 µM (inactive),30.8 µM (inactive),27.1 µM (inactive),17.9 µM (inactive),16.9 µM (inactive),31.1 µM (inactive),21 µM (inactive),27.9 µM (inactive),11.4 µM (inactive),–,–,15.5 µM (inactive),28 µM (inactive),19.1 µM (inactive),17.6 µM (inactive),25.4 µM (inactive),19.1 µM (inactive),14.6 µM (inactive)
O=C(O)[C@@]1(Cc2ccc(O)cc2)C[C@@H]2Cc3ccccc3N2N1,> 100 µM (inactive),> 100 µM (inactive),> 100 µM (inactive),> 100 µM (inactive),> 100 µM (inactive),> 100 µM (inactive),> 100 µM (inactive),> 100 µM (inactive),> 100 µM (inactive),> 100 µM (inactive),> 100 µM (inactive),> 100 µM (inactive),> 100 µM (inactive),> 100 µM (inactive),–,> 100 µM (inactive),> 100 µM (inactive),> 100 µM (inactive),> 100 µM (inactive)
C/C(=N\Nc1nc2ccccc2s1)c1cccc[n+]1[O-],47.1 µM (inactive),42.8 µM (inactive),32.4 µM (inactive),> 100 µM (inactive),41.5 µM (inactive),32.2 µM (inactive),49.9 µM (inactive),76.2 µM (inactive),36.2 µM (inactive),0.594 µM (active),45.1 µM (inactive),> 100 µM (inactive),32.8 µM (inactive),> 100 µM (inactive),–,30.8 µM (inactive),17 µM (inactive),40.1 µM (inactive),–
CN1C(=S)C(c2ccccc2)Sc2ccccc21 (centres undefined),> 100 µM (inactive),84.3 µM (inactive),> 100 µM (inactive),> 100 µM (inactive),> 10 µM (inactive),> 100 µM (inactive),> 100 µM (inactive),77.8 µM (inactive),> 100 µM (inactive),17.4 µM (inactive),–,–,34.8 µM (inactive),> 100 µM (inactive),35.7 µM (inactive),78.5 µM (inactive),85.9 µM (inactive),30.8 µM (inactive),87.5 µM (inactive)
O=C(O)c1ccc(N/C(=C(/C(Cl)=C(Cl)Cl)[N+](=O)[O-])n2nnc3ccccc32)cc1,> 100 µM (inactive),> 100 µM (inactive),> 100 µM (inactive),–,> 100 µM (inactive),> 100 µM (inactive),> 100 µM (inactive),> 100 µM (inactive),> 100 µM (inactive),> 100 µM (inactive),> 100 µM (inactive),> 100 µM (inactive),–,> 100 µM (inactive),–,> 100 µM (inactive),–,> 100 µM (inactive),–
CC[C@@H]1CN2CCC1C[C@@H]2C(O)c1ccnc2ccc(OCCN3CCN(CCOc4ccc5nccc(C(O)[C@@H]6C[C@@H]7CCN6C[C@@H]7CC)c5c4)CC3)cc12 (some centres undefined),13.4 µM (inactive),15.3 µM (inactive),17.9 µM (inactive),17.5 µM (inactive),15.7 µM (inactive),12.8 µM (inactive),15.9 µM (inactive),12.9 µM (inactive),18.4 µM (inactive),16.3 µM (inactive),13.8 µM (inactive),19.9 µM (inactive),15 µM (inactive),14.5 µM (inactive),–,19.7 µM (inactive),14.4 µM (inactive),16.1 µM (inactive),21.9 µM (inactive)
COc1ccc(Nc2nc(NNC(=O)Cc3ccccc3)nc(NNC(=O)c3ccncc3)n2)cc1,> 10 µM (inactive),> 10 µM (inactive),> 10 µM (inactive),> 10 µM (inactive),> 10 µM (inactive),> 10 µM (inactive),> 10 µM (inactive),> 10 µM (inactive),> 10 µM (inactive),> 10 µM (inactive),> 10 µM (inactive),–,> 10 µM (inactive),> 10 µM (inactive),> 10 µM (inactive),> 10 µM (inactive),> 10 µM (inactive),> 10 µM (inactive),–
O=[N+]([O-])C(=C1NCCN1)/C(Cl)=C(/Cl)N1CCOCC1,> 100 µM (inactive),> 100 µM (inactive),> 100 µM (inactive),> 100 µM (inactive),> 100 µM (inactive),> 100 µM (inactive),> 100 µM (inactive),> 100 µM (inactive),> 100 µM (inactive),> 100 µM (inactive),> 100 µM (inactive),> 100 µM (inactive),–,> 100 µM (inactive),> 100 µM (inactive),> 100 µM (inactive),–,> 100 µM (inactive),–
O=C(N/N=C(\c1ccccc1)c1ccccn1)NC1CCCCC1,63.5 µM (inactive),46.8 µM (inactive),57 µM (inactive),64.6 µM (inactive),59.2 µM (inactive),30 µM (inactive),27.7 µM (inactive),> 100 µM (inactive),37.2 µM (inactive),26.6 µM (inactive),–,82.4 µM (inactive),40.1 µM (inactive),> 100 µM (inactive),> 100 µM (inactive),28.6 µM (inactive),26.9 µM (inactive),> 100 µM (inactive),–
Cc1cccc2c(=O)c3cccc([C@H](C)C(=O)O)c3oc12,> 100 µM (inactive),> 100 µM (inactive),> 100 µM (inactive),> 100 µM (inactive),> 100 µM (inactive),> 100 µM (inactive),> 100 µM (inactive),> 100 µM (inactive),> 100 µM (inactive),> 100 µM (inactive),> 100 µM (inactive),> 100 µM (inactive),> 100 µM (inactive),> 100 µM (inactive),–,> 100 µM (inactive),> 100 µM (inactive),> 100 µM (inactive),> 100 µM (inactive)
NC(CC1=CS(=O)(=O)c2ccc(Cl)cc21)C(=O)O (centres undefined),> 100 µM (inactive),> 100 µM (inactive),> 100 µM (inactive),> 100 µM (inactive),> 100 µM (inactive),> 100 µM (inactive),> 100 µM (inactive),> 100 µM (inactive),> 100 µM (inactive),83.6 µM (inactive),> 100 µM (inactive),> 100 µM (inactive),> 100 µM (inactive),> 100 µM (inactive),20.6 µM (inactive),> 100 µM (inactive),> 100 µM (inactive),54.7 µM (inactive),–
COC(=O)CSc1nc2[nH]c(SC)c(C(N)=O)c2c(=O)n1-c1ccccc1,> 10 µM (inactive),> 10 µM (inactive),> 10 µM (inactive),> 10 µM (inactive),> 10 µM (inactive),> 10 µM (inactive),> 10 µM (inactive),> 10 µM (inactive),> 10 µM (inactive),> 10 µM (inactive),–,–,> 10 µM (inactive),–,> 10 µM (inactive),> 10 µM (inactive),> 10 µM (inactive),> 10 µM (inactive),> 10 µM (inactive)
COC(=O)C1CCC(=S)N1C(=O)OCc1ccccc1 (centres undefined),> 100 µM (inactive),71 µM (inactive),> 100 µM (inactive),> 100 µM (inactive),> 100 µM (inactive),> 100 µM (inactive),> 100 µM (inactive),> 100 µM (inactive),98.6 µM (inactive),78 µM (inactive),–,> 100 µM (inactive),> 100 µM (inactive),> 100 µM (inactive),> 100 µM (inactive),> 100 µM (inactive),> 100 µM (inactive),66.4 µM (inactive),–
